Patent US20050100507A1, “Chemotactic peptide antagonists for imaging sites of inflammation” (Bracco Imaging S.p.A., priority 1998, published 2005)
Square brackets hold non-standard residues; d marks the D form. Ends that are not written are not given here. Peptide text beside a SMILES is read from it. * marks the point of attachment. 3‑but‑1‑enoxycarbonyl = 3-but-1-enoxycarbonyl (N-terminal capping group); 2‑quinoxazoyl = 2-quinoxazoyl (N-terminal capping group); Adamantane1carbonyl = O=C(C12CC3CC(CC(C3)C1)C2)*; N‑phenyl‑N‑methylcarbamoyl = CN(C(=O)*)c1ccccc1; trans‑cinnamoyl = O=C(/C=C/c1ccccc1)*; Cyclopropanecarbonyl = O=C(C1CC1)*; iso‑Boc = not defined here; Nle = CCCC[C@H](N)C(=O)O; 2Furoyl = O=C(c1ccco1)*; Boc = CC(C)(C)OC(=O)*; For = O=C*

Columns and labels:
[1] = test system: elicited rat PMNs; type: cell-based; details: for EC50: 4 h; for % Control (1 uM) / % Control (10 uM): MPO release, PMNs without fMLF, ± S.E.M.; for % Control (1 uM): test peptide 1 uM; for % Control (10 uM): test peptide 10 uM
Procedure: (§1) Animals were sacrificed via administration of CO2 4 hours following peritoneal injection of 10 mL of 0.5% (w/v) oyster glycogen warmed to room temperature. Leukocyte harvesting via peritoneal lavage was performed using 20 mL of Hanks' buffered salt solution (HBSS−) containing 10 mM ethylene-diaminetetra-acetic acid (EDTA) disodium salt followed by a second lavage with 10 mL of HBSS− containing 10 mM EDTA. Exactly the same technique was performed on all rats with washes of the peritoneum prior to aspiration of samples approximating 1 minute. The volume of fluid recovered from each rat was approximately 20-25 mL and bloody lavages visibly containing significant red blood cell (RBC) populations were discarded.
(§2) Neutrophils isolated by peritoneal lavage were washed twice with 1 mL of HBSS− (without calcium chloride, magnesium chloride and magnesium sulfate) and centrifuged for ten minutes at 2000 rpms following each wash. PMNs utilized in functional assays were centrifuged at 25° C. while those used in binding assays were centrifuged at 4° C. to prevent internalization. A cold H2O RBC lysis was then performed with the addition of 9 mL of sterile ice-cold H2O and 1 mL of phosphate buffered saline (PBS) solution containing 0.1 M phosphate buffer, 0.027 M KCl and 1.37 M NaCl following resuspension of the sample in 1 mL of HBSS. Centrifugation was subsequently performed for ten minutes at 1600 rpms. White blood cell (WBC) differential stain containing saline, 2% acidic acid and phenol violet dye was used to identify the neutrophil population and trypan blue exclusion was used to determine viability of cells. As previously reported, 98% of leukocytes were neutrophils and approximately 95% of the cells were viable (Chen et al., 1996).
(§3) 0.5×10^6 PMNs per sample were incubated in 96-well Millipore Multiscreen 0.65 um filter plates. In a final volume of 150 uL, 50 uL of the respective fMLP analogues (10 uM to 1 pM) and/or fMLP (10 uM to 1.0 uM) were incubated with isolated PMNs pre-treated with cytochalasin B (5 ug/mL) for 10 minutes. Following a 30 minute incubation period at room temperature, the supernatant was collected into a 96-well polypropylene plate with the Millipore vacuum apparatus. A stock solution of o-phenylenediamine (OPD) was made to contain 2.5 mg of OPD, 5 ul of H2O2 and 10 mL HBSS+ and supernatant samples were subsequently incubated with 50 uL of OPD solution. The reaction was stopped after 2 minutes by the addition of 2.5M H2SO4. Photometric analysis was performed with the Thermomax Microplate Reader with optical density (O.D.490) values being read at a wavelength of 490 nm. Absorbance was measured against a blank containing 150 μl of HBSS+ which was subtracted from wells containing cells and the various treatments. MPO release was expressed as a percentage of the total release of myeloperoxidase in control wells containing cells ±fMLF.
(§4) The curve-fitting program Prism was used to calculate KD, IC50 and EC50 values by fitting data to the one-site binding equations A, B and C respectively. • A. Equation: One site binding (hyperbola) Y=Bmax*X/(KD+X) • B. Equation: One site competition Y=Bottom+(Top−Bottom)/(1+10^(X−LogIC50)); with x=log (concentration) and y=binding • C. […] Additionally, Graph fit software was used to perform Scatchard analysis of saturation binding data and to confirm KD and Bmax values generated by Prism software.

[2] = test system: elicited rat PMNs; assay: Myeloperoxidase release in elicited rat PMNs co-stimulated with 0.1 uM fMLF; type: cell-based; details: for antagonist function on MPO release in fMLF stimulated rat PMNs: 0.1 uM fMLF, inhibition at 10 uM, result in words; for % Control MPO release (1 uM capping group + 0.1 uM fMLF): 1 uM test peptide + 0.1 uM fMLF; for % Control MPO release (1 uM capping group + 0.1 uM fMLF) / % Control MPO Release (10 uM capping group + 0.1 uM fMLF): ± S.E.M.; for % Control MPO Release (10 uM capping group + 0.1 uM fMLF): 10 uM test peptide + 0.1 uM fMLF
Procedure: as §1, §2
as §3, with “In a final volume of 150 uL, 50 uL of the respective fMLP analogues (10 uM to 1 pM) and/or fMLP (10 uM to 1.0 uM) were incubated with isolated PMNs pre-treated with cytochalasin B (5 ug/mL) for 10 minutes.” left out

[3] = biological target: T1, Rat FPR (Rattus norvegicus, UniProt D4A7Q2); assay: Competition binding with 6 nM 3H-fMLF to elicited rat PMNs; details: 6 nM 3H-fMLF, result in words; for competition binding of N-terminal modified NleLFK peptides (FIG. 8): peptides at 1 uM and 10 uM
T1 construct: endogenous in cells; host or cells: glycogen-elicited peritoneal neutrophils (PMNs) of Sprague-Dawley rats
T1 sequence (D4A7Q2 1-355): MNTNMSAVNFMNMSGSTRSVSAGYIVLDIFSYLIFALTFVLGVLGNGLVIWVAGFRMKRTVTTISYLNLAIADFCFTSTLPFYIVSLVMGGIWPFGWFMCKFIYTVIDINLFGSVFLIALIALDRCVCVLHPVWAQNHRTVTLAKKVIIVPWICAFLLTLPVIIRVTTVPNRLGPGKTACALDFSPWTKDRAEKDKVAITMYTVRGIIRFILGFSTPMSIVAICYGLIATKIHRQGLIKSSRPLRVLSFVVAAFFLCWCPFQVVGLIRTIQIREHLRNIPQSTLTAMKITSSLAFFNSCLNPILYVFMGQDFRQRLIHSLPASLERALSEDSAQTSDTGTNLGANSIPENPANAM
Procedure: as §1, §2
Competition binding assays for N-terminal capping groups and Re-libraries were conducted with 6 nM ^3H-fMLP in addition to the unlabelled competing analogue added at 1.0 uM and 10 uM to each well. […] Total binding in the competition assays was assessed in the presence of 1.0×10^6 PMNs per sample while non-specific binding was determined in the absence of cells. Each condition was performed in quadruplicate. Total activity added to each sample was determined from cpms obtained from a sample containing 6 nM ^3H-fMLF. Data was expressed as specific binding in fmols and converted to percent of total ^3H-fMLF binding (% control).
After a 1 hour incubation period at 4° C., the samples were harvested with the Tomtec Mach III Cell Harvester by vacuum aspiration onto 1.5 um pore size Skatron glass-fibre filter mats pre-treated with 0.1% polyethylenimine (w/v) for approximately 24 hours. Sample wells received three consecutive 12 second washes with 0.9% saline solution and 5 mL of liquid scintillation fluid was added to collected filters. Filters were counted for 2 minutes in the Beckman β-counter following exposure to scintillation fluid for 15 hours. Data was expressed in terms of specific binding in fmols converted to percent of total ^3H-fMLF binding (% control).
as §4

| Molecule | % Control (1 uM) [1] [% control] | % Control (10 uM) [1] [% control] | other results |
| --- | --- | --- | --- |
| CSCC[C@H](NC=O)C(=O)N[C@@H](CC(C)C)C(=O)N[C@@H](Cc1ccccc1)C(=O)O [fMLF, N-formyl-methionyl-leucyl-phenylalanine, reference compound] |  |  | EC50 [1]: 110 nM |
| CSCC[C@H](NC=O)C(=O)N[C@@H](CC(C)C)C(=O)N[C@@H](Cc1ccccc1)C(=O)N[C@@H](CCCCN)C(=O)O [fMLFK, N-formyl-methionyl-leucyl-phenylalanyl-lysine, reference compound] (For-MLFK-OH) |  |  | EC50 [1]: 140 nM |
| Capping Group 2: 2-methoxyacetyl N-terminal capping group attached to peptide NleLFK ({2‑methoxyacetyl}-[Nle]LFK) | 95.0 ± 15.7 | 97.1 ± 37.1 |  |
| Capping Group 3: Furoyl N-terminal capping group attached to peptide NleLFK (2Furoyl-[Nle]LFK) | 93.0 ± 9.0 | 102.5 ± 9.0 |  |
| Capping Group 4: Phenylthioacetyl N-terminal capping group attached to peptide NleLFK (phenylthioacetyl-[Nle]LFK) | 138.7 ± 28.6 | 119.7 ± 20.3 |  |
| Capping Group 7: 3-but-1-enoxycarbonyl N-terminal capping group attached to peptide NleLFK ({3‑but‑1‑enoxycarbonyl}-[Nle]LFK) | 133.8 ± 13.3 | 229.3 ± 13.3 |  |
| Capping Group 10: N-phenyl-N-methylcarbamoyl N-terminal capping group attached to peptide NleLFK ({N‑phenyl‑N‑methylcarbamoyl}-[Nle]LFK) | 94.7 ± 20.4 | 68.0 ± 17.4 | antagonist function on MPO release in fMLF stimulated rat PMNs [2]: exhibited antagonist function in fMLF stimulated cells; % Control MPO release (1 uM capping group + 0.1 uM fMLF) [2]: 171.2 ± 6.3 % control; % Control MPO Release (10 uM capping group + 0.1 uM fMLF) [2]: 121.3 ± 23.9 % control; competition binding of N-terminal modified NleLFK peptides (FIG. 8) [3]: did not significantly decrease the amount of ^3H-fMLF binding |
| Capping Group 12: 2-acetamido-5-thiazolesulfonyl N-terminal capping group attached to peptide NleLFK ({2‑acetamido‑5‑thiazolesulfonyl}-[Nle]LFK) | 117.5 ± 7.8 | 175.5 ± 12.0 |  |
| Capping Group 13: Adamantylcarbonyl N-terminal capping group attached to peptide NleLFK (Adamantane1carbonyl-[Nle]LFK) | 70.5 ± 14.9 | 71.7 ± 11.2 | antagonist function on MPO release in fMLF stimulated rat PMNs [2]: exhibited antagonist function in fMLF stimulated cells; % Control MPO release (1 uM capping group + 0.1 uM fMLF) [2]: 131.6 ± 30.9 % control; % Control MPO Release (10 uM capping group + 0.1 uM fMLF) [2]: 128.6 ± 40.9 % control; competition binding of N-terminal modified NleLFK peptides (FIG. 8) [3]: did not significantly decrease the amount of ^3H-fMLF binding |
| Capping Group 14: 2-quinoxazoyl N-terminal capping group attached to peptide NleLFK ({2‑quinoxazoyl}-[Nle]LFK) | 117.2 ± 18.6 | 129.8 ± 6.0 | antagonist function on MPO release in fMLF stimulated rat PMNs [2]: significant inhibition; % Control MPO release (1 uM capping group + 0.1 uM fMLF) [2]: 323.2 ± 16.8 % control; % Control MPO Release (10 uM capping group + 0.1 uM fMLF) [2]: 239.8 ± 9.0 % control |
| Capping Group 15: trans-cinnamoyl N-terminal capping group attached to peptide NleLFK ({trans‑cinnamoyl}-[Nle]LFK) | 133.1 ± 10.3 | 195.8 ± 14.3 |  |
| N-t-BocMLFK: known antagonist used as standard in MPO release assay (Boc-MLFK) [reference compound] | 89.8 ± 32.5 | 86.7 ± 31.1 |  |
| cycloproylcarbonyl-NleLFK (Cyclopropanecarbonyl-[Nle]LFK) [Capping Group 17] | 108.0 ± 14.5 | 91.8 ± 16.3 | inhibition of 3H-fMLF binding at 10 uM compared with iso-BocMLFK (FIG. 8) ([3]; peptide 10 uM): inhibited ^3H-fMLF binding to a degree comparable with known antagonist iso-BocMLFK; competition binding of N-terminal modified NleLFK peptides (FIG. 8) ([3]; listed as 17): do not nullify binding affinity; competition binding of N-terminal modified NleLFK peptides (FIG. 8) ([3]; listed as cycloproylcarbonyl-NleLFK): inhibit ^3H-fMLF binding |
| iso-BocMLFK: known antagonist, fMLP peptide analogue synthesized in-house ({iso‑Boc}-MLFK; reading uncertain) [reference compound] | 99.6 ± 16.5 | 94.7 ± 20.2 | antagonist function on MPO release in fMLF stimulated rat PMNs [2]: significantly inhibiting fMLF-stimulated MPO release; % Control MPO release (1 uM capping group + 0.1 uM fMLF) [2]: 215.4 ± 66.3 % control; % Control MPO Release (10 uM capping group + 0.1 uM fMLF) [2]: 179.9 ± 50.6 % control |
